According to PubChem BioAssay AID1259407 (Chemical Carcinogenesis Research Information System (CCRIS), 2018):
Activity calls are given as the source filed them. No rule for the calls is given here.

System: CCRIS mutagenicity, Ames/micronucleus/aberration tests
Experiment: CCRIS mutagenicity studies
[1] = Test System: AMES SALMONELLA TYPHIMURIUM, Strain/Indicator: TA100, Metabolic Activation: HAMSTER, LIVER, S-9, AROCLOR 1254 (10%), Method: PREINCUBATION
[2] = Test System: AMES SALMONELLA TYPHIMURIUM, Strain/Indicator: TA100, Metabolic Activation: NONE, Method: PREINCUBATION
[3] = Test System: AMES SALMONELLA TYPHIMURIUM, Strain/Indicator: TA100, Metabolic Activation: RAT, LIVER, S-9, AROCLOR 1254 (10%), Method: PREINCUBATION
[4] = Test System: AMES SALMONELLA TYPHIMURIUM, Strain/Indicator: TA1535, Metabolic Activation: HAMSTER, LIVER, S-9, AROCLOR 1254 (10%), Method: PREINCUBATION
[5] = Test System: AMES SALMONELLA TYPHIMURIUM, Strain/Indicator: TA1535, Metabolic Activation: NONE, Method: PREINCUBATION
[6] = Test System: AMES SALMONELLA TYPHIMURIUM, Strain/Indicator: TA1535, Metabolic Activation: RAT, LIVER, S-9, AROCLOR 1254 (10%), Method: PREINCUBATION
[7] = Test System: AMES SALMONELLA TYPHIMURIUM, Strain/Indicator: TA98, Metabolic Activation: HAMSTER, LIVER, S-9, AROCLOR 1254 (10%), Method: PREINCUBATION
[8] = Test System: AMES SALMONELLA TYPHIMURIUM, Strain/Indicator: TA98, Metabolic Activation: NONE, Method: PREINCUBATION
[9] = Test System: AMES SALMONELLA TYPHIMURIUM, Strain/Indicator: TA98, Metabolic Activation: RAT, LIVER, S-9, AROCLOR 1254 (10%), Method: PREINCUBATION
[10] = Test System: AMES SALMONELLA TYPHIMURIUM, Strain/Indicator: TA1537, Metabolic Activation: HAMSTER, LIVER, S-9, AROCLOR 1254 (10%), Method: PREINCUBATION
[11] = Test System: AMES SALMONELLA TYPHIMURIUM, Strain/Indicator: TA1537, Metabolic Activation: NONE, Method: PREINCUBATION
[12] = Test System: AMES SALMONELLA TYPHIMURIUM, Strain/Indicator: TA1537, Metabolic Activation: RAT, LIVER, S-9, AROCLOR 1254 (10%), Method: PREINCUBATION

Row | Structure (SMILES) | mutagenic call [1] | mutagenic call [2] | mutagenic call [3] | mutagenic call [4] | mutagenic call [5] | mutagenic call [6] | mutagenic call [7] | mutagenic call [8] | mutagenic call [9] | mutagenic call [10] | mutagenic call [11] | mutagenic call [12] | further results
1 | Clc1cc(Cl)nc(Cl)n1 | – | – | – | – | – | – | – | – | – | – | – | – | mutagenic call (Test System: AMES SALMONELLA TYPHIMURIUM, Strain/Indicator: TA98, Metabolic Activation: HAMSTER, LIVER, S-9, AROCLOR 1254, Method: STANDARD PLATE): inactive; negative; mutagenic call (Test System: AMES SALMONELLA TYPHIMURIUM, Strain/Indicator: TA98, Metabolic Activation: NONE, Method: STANDARD PLATE): inactive; negative; mutagenic call (Test System: AMES SALMONELLA TYPHIMURIUM, Strain/Indicator: TA98, Metabolic Activation: RAT, LIVER, S-9, AROCLOR 1254, Method: STANDARD PLATE): inactive; negative; mutagenic call (Test System: AMES SALMONELLA TYPHIMURIUM, Strain/Indicator: TA100, Metabolic Activation: HAMSTER, LIVER, S-9, AROCLOR 1254, Method: STANDARD PLATE): inactive; negative; mutagenic call (Test System: AMES SALMONELLA TYPHIMURIUM, Strain/Indicator: TA100, Metabolic Activation: NONE, Method: STANDARD PLATE): inactive; negative; mutagenic call (Test System: AMES SALMONELLA TYPHIMURIUM, Strain/Indicator: TA100, Metabolic Activation: RAT, LIVER, S-9, AROCLOR 1254, Method: STANDARD PLATE): inactive; negative; mutagenic call (Test System: AMES SALMONELLA TYPHIMURIUM, Strain/Indicator: TA1535, Metabolic Activation: HAMSTER, LIVER, S-9, AROCLOR 1254, Method: STANDARD PLATE): inactive; negative; mutagenic call (Test System: AMES SALMONELLA TYPHIMURIUM, Strain/Indicator: TA1535, Metabolic Activation: NONE, Method: STANDARD PLATE): inactive; negative; mutagenic call (Test System: AMES SALMONELLA TYPHIMURIUM, Strain/Indicator: TA1535, Metabolic Activation: RAT, LIVER, S-9, AROCLOR 1254, Method: STANDARD PLATE): inactive; negative; mutagenic call (Test System: AMES SALMONELLA TYPHIMURIUM, Strain/Indicator: TA1537, Metabolic Activation: HAMSTER, LIVER, S-9, AROCLOR 1254, Method: STANDARD PLATE): inactive; negative; mutagenic call (Test System: AMES SALMONELLA TYPHIMURIUM, Strain/Indicator: TA1537, Metabolic Activation: NONE, Method: STANDARD PLATE): inactive; negative; mutagenic call (Test System: AMES SALMONELLA TYPHIMURIUM, Strain/Indicator: TA1537, Metabolic Activation: RAT, LIVER, S-9, AROCLOR 1254, Method: STANDARD PLATE): inactive; negative; mutagenic call (Test System: AMES SALMONELLA TYPHIMURIUM, Strain/Indicator: TA1538, Metabolic Activation: HAMSTER, LIVER, S-9, AROCLOR 1254, Method: STANDARD PLATE): inactive; negative; mutagenic call (Test System: AMES SALMONELLA TYPHIMURIUM, Strain/Indicator: TA1538, Metabolic Activation: NONE, Method: STANDARD PLATE): inactive; negative; mutagenic call (Test System: AMES SALMONELLA TYPHIMURIUM, Strain/Indicator: TA1538, Metabolic Activation: RAT, LIVER, S-9, AROCLOR 1254, Method: STANDARD PLATE): inactive; negative; mutagenic call (Test System: Mouse lymphoma, Strain/Indicator: L5178Y (tk+/tk-), Metabolic Activation: None, Method: Suspension/plate): active; inconclusive (previous evaluation positive); mutagenic call (Test System: Mouse lymphoma, Strain/Indicator: L5178Y (tk+/tk-), Metabolic Activation: Rat, Liver, S-9, Aroclor 1254, Method: Suspension/plate): active; positive
2 | CCCCOCC1CO1 (stereo unspecified) | active; positive | active; positive | active; positive | active; positive | active; positive | active; positive | – | – | – | – | – | – | mutagenic call (Test System: AMES SALMONELLA TYPHIMURIUM, Strain/Indicator: TA100, Metabolic Activation: NONE, Method: SPOT): active; positive
3 | CN(C)C(=S)N(C)C | inactive; negative | inactive; negative | inactive; negative | inactive; negative | inactive; negative | inactive; negative | inactive; negative | inactive; negative | inactive; negative | inactive; negative | inactive; negative | inactive; negative | –
4 | CON | inactive; negative | inactive; negative | inactive; negative | inactive; negative | inactive; negative | inactive; negative | inactive; negative | inactive; negative | inactive; negative | inactive; negative | inactive; negative | inactive; negative | –
5 | Oc1cc(O)c2c(c1)O[C@H](c1cc(O)c(O)c(O)c1)[C@H](O)C2 | – | – | – | – | – | – | – | – | – | – | – | – | mutagenic call (End Point: In vitro chromosomal aberrations, Test System: Chinese hamster (CHL/IU) cells, Metabolic Activation: None): active; positive (structural changes: gaps, breaks, aberrations); mutagenic call (Test System: Ames Salmonella typhimurium, Strain/Indicator: TA102, Metabolic Activation: None, Method: Preincubation): inactive; negative; mutagenic call (Test System: Ames Salmonella typhimurium, Strain/Indicator: TA102, Metabolic Activation: Rat, Liver, S-9, Aroclor 1254 in 0.154 M KCl, Method: Preincubation): inactive; negative; mutagenic call (Test System: E. coli, Strain/Indicator: WP2 uvrA/pKM101, Metabolic Activation: None, Method: Preincubation): inactive; negative
6 | CCCC(C)(COC(N)=O)COC(=O)NC(C)C (stereo unspecified) | inactive; negative | inactive; negative | inactive; negative | inactive; negative | inactive; negative | inactive; negative | inactive; negative | inactive; negative | inactive; negative | inactive; negative | inactive; negative | inactive; negative | –
7 | CCN(CC)c1cccc(O)c1 | active; positive | inactive; negative | inactive; negative | inactive; negative | inactive; negative | inactive; negative | active; positive | inactive; negative | active; positive | – | – | – | mutagenic call (Test System: AMES SALMONELLA TYPHIMURIUM, Strain/Indicator: TA97, Metabolic Activation: HAMSTER, LIVER, S-9, AROCLOR 1254 (10%), Method: PREINCUBATION): active; positive; mutagenic call (Test System: AMES SALMONELLA TYPHIMURIUM, Strain/Indicator: TA97, Metabolic Activation: NONE, Method: PREINCUBATION): inactive; negative; mutagenic call (Test System: AMES SALMONELLA TYPHIMURIUM, Strain/Indicator: TA97, Metabolic Activation: RAT, LIVER, S-9, AROCLOR 1254 (10%), Method: PREINCUBATION): active; positive
